Where a chain is given by its changes, count along the chain named.
What was measured:
WT mouse TRPV3 = target: T1, WT mouse TRPV3 (Mus musculus, UniProt Q8K424); format: cell-based
T1 construct: expressed in transfected cells; host or cells: Xenopus laevis oocytes (cRNA injection, pGEM-HE vector)
T1 sequence (Q8K424 1-791): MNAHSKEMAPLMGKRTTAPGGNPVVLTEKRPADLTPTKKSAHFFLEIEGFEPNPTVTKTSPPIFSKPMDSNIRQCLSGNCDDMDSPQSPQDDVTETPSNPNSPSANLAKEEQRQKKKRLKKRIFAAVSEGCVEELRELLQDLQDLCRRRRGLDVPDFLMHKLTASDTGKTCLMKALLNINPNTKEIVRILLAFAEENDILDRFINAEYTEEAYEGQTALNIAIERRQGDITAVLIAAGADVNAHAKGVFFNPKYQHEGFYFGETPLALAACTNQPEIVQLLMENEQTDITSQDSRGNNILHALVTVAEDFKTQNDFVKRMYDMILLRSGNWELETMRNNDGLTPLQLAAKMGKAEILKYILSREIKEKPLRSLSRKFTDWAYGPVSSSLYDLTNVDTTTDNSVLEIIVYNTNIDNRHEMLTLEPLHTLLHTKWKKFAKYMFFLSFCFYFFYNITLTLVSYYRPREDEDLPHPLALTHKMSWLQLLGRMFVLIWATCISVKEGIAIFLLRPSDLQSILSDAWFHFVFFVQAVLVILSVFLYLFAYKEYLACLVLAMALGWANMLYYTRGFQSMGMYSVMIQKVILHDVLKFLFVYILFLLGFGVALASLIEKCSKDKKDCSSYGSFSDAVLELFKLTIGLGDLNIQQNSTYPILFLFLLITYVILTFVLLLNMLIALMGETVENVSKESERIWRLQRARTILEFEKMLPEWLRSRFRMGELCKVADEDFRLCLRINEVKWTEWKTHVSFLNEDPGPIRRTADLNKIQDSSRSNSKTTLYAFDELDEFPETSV
Experimental: (§1) All channel constructs were expressed in Xenopus laevis oocytes and studied using the two-electrode voltage clamp technique (TEVC) following 1–4 days of incubation after cRNA injection. The animal care and experimental procedures were performed in accordance with the Guide for the Care and Use of Laboratory Animals and were approved by the Animal Care and Use Committee of the National Institute of Neurological Disorders and Stroke (Animal protocol number 1253–17). Oocytes were removed surgically and incubated with agitation for 1 hr in a solution containing (in mM) 82.5 NaCl, 2.5 KCl, 1 MgCl2, 5 HEPES, pH 7.6 (with NaOH), and collagenase (2 mg/ml; Worthington Biochemical, Lakewood, NJ). Defolliculated oocytes were injected with cRNA for each of the constructs and incubated at 17°C in a solution containing (in mM) 96 NaCl, 2 KCl, 1 MgCl2, 1.8 CaCl2, 5 HEPES, pH 7.6 (with NaOH), and gentamicin (50 μg/ml, GIBCO-BRL, Gaithersburg, MD). Oocyte membrane voltage was controlled using an OC-725C oocyte clamp (Warner Instruments, Hamden, CT). Data were filtered at 1–3 kHz and digitized at 20 kHz using pClamp software (Molecular Devices, Sunnyvale, CA) and a Digidata 1440A digitizer (Axon Instruments). Microelectrode resistances were 0.1–1 MΩ when filled with 3 M KCl. For recording TRP channel currents, the external recording solution contained (in mM) 100 KCl, 10 HEPES, pH 7.6 (with KOH). Experiments were performed at room temperature (~22°C), except as indicated otherwise. […] Current time courses were obtained by stepping membrane voltage every 2 s from a holding potential of 0 mV to either −60 or +60 mV for 100 ms, and plotting the mean steady-state current at the end of each voltage step as a function of total recording time. I-V relations were obtained similarly, but voltage was stepped every 2 s to a different value, in 10 mV increments and starting at −60 mV.
(§2) For temperature-activation experiments, calcium-activated chloride currents were minimized by using calcium-free solution containing 30 µM Caccinh-A01 and recording at negative membrane voltages. Heat stimuli were achieved by passing the external recording solution through glass capillary spirals immersed in a water bath maintained at about 70°C, and recordings were performed during constant perfusion with temperature measured using a thermistor (TA-29, Warner Instruments) located close to the cell. The thermistor was connected to the digitizer via a temperature controller (TC-324B, Warner Instruments) ([Zhang et al., 2018]). Oocytes injected with the various constructs were only studied if un-injected oocytes from the same batch contained a low density of endogenous temperature-sensitive currents at negative membrane voltages. For delivering cold stimuli, the external solution was passed through glass capillary spirals that were immersed in an ice bath. The mean I vs T relations were calculated by automatically binning each of the recordings in temperature intervals of 2°C, and averaging a single data point within each interval per cell. All data analysis was carried out using Igor Pro 6.3 (Wavemetrics, Portland, OR). Q10 values were obtained from Q10 = 10^10 x m, where m is the slope of linear fits to normalized log(current) vs temperature relations (not shown) over temperature intervals ~ 20–34°C or 38 – 45°C ([Zhang et al., 2018]).

mouse TRPV3-6M = target: T2, mouse TRPV3-6M (Mus musculus, UniProt Q8K424, A560T/F522S/H523E/L557M/Q580E/W521Y); format: cell-based; settings: for channel activation (current response): RTx 100 nM, 2-APB 3 mM, room temperature, ±60 mV
T2 construct: expressed in transfected cells; host or cells: Xenopus laevis oocytes
T2 sequence (Q8K424 1-791 W521Y/F522S/H523E/L557M/A560T/Q580E): T1 sequence (Q8K424 1-791) with W521Y, F522S, H523E, L557M, A560T, Q580E
Experimental: as §1, §2

| Structure (SMILES) | channel activation by RTx after 2-APB pre-stimulation (WT mouse TRPV3; RTx 100 nM after short stimulation with 2-APB (3 mM)) | channel activation by RTx together with heating (WT mouse TRPV3; RTx 100 nM with heating) | channel activation by RTx after 2-APB pre-stimulation (mouse TRPV3-6M; RTx 100 nM after short stimulation with saturating 2-APB (3 mM)) | channel activation by RTx together with heating (mouse TRPV3-6M; RTx 100 nM with short heating pulse, temperatures slightly above room temperature) | channel activation (current response) (mouse TRPV3-6M) | channel activation (current response) (WT mouse TRPV3; 2-APB 3 mM, room temperature) | s (slope) of Hill fit, 2-APB concentration-response (WT mouse TRPV3; -60 mV) | EC50 (WT mouse TRPV3; -60 mV, room temperature, Hill fit, read-out: apparent affinity (EC50) for activation by 2-APB) |
| --- | --- | --- | --- | --- | --- | --- | --- | --- |
| C=C(C)[C@]12C[C@@H](C)[C@@]34O[C@](Cc5ccccc5)(O[C@@H]1[C@@H]3C=C(COC(=O)Cc1ccc(O)c(OC)c1)C[C@]1(O)C(=O)C(C)=C[C@@H]41)O2 [RTx, resiniferatoxin] | did not activate | did not elicit any response | robust activation | prominent activation | insensitive |  |  |  |
| NCCOB(c1ccccc1)c1ccccc1 [2-APB, 2-aminoethoxydiphenyl borate] |  |  |  |  | robust responses | robust responses | 2.63 | 464 ± 12 µM |

— PMC6333442, “Conserved allosteric pathways for activation of TRPV3 revealed through engineering vanilloid-sensitivity” (eLife, 2019)
